Assay: xn = mol fraction of the nth substance listed
Settings: 101 kPa, Liquid; for viscosity: Falling or rolling sphere viscometry; for mass density: Vibrating tube method

CC[N+]1(C)CCOCC1.[Br-] [N-ethyl-N-methylmorpholinium bromide] + O
Settings	mass density [kg/m3]	viscosity [mPa·s]
298.15 K, x1 = 0.023	1062.6	1.197
298.15 K, x1 = 0.045	1111.8	1.56
298.15 K, x1 = 0.07	1156	2.228
298.15 K, x1 = 0.1	1197.3	3.5
298.15 K, x1 = 0.128	1227	5.195
298.15 K, x1 = 0.16	1254.9	8.371
298.15 K, x1 = 0.192	1278.3	13.81
298.15 K, x1 = 0.22	1295.2	22.13
298.15 K, x1 = 0.252	1311.3	37.25
303.15 K, x1 = 0.023	1060.7	1.06
303.15 K, x1 = 0.045	1109.6	1.391
303.15 K, x1 = 0.07	1153.6	1.983
303.15 K, x1 = 0.1	1194.6	3.126
303.15 K, x1 = 0.128	1224.2	4.423
303.15 K, x1 = 0.16	1252	7.156
303.15 K, x1 = 0.192	1275.3	11.53
303.15 K, x1 = 0.22	1292.1	18.2
303.15 K, x1 = 0.252	1308.2	29.81
308.15 K, x1 = 0.023	1058.6	0.961
308.15 K, x1 = 0.045	1107.3	1.254
308.15 K, x1 = 0.07	1151	1.778
308.15 K, x1 = 0.1	1191.8	2.816
308.15 K, x1 = 0.128	1221.3	3.944
308.15 K, x1 = 0.16	1249	6.192
308.15 K, x1 = 0.192	1272.3	9.829
308.15 K, x1 = 0.22	1289	15.03
308.15 K, x1 = 0.252	1305	24.22
313.15 K, x1 = 0.023	1056.3	0.876
313.15 K, x1 = 0.045	1104.8	1.136
313.15 K, x1 = 0.07	1148.3	1.566
313.15 K, x1 = 0.1	1189	2.543
313.15 K, x1 = 0.128	1218.4	3.485
313.15 K, x1 = 0.16	1246	5.438
313.15 K, x1 = 0.192	1269.2	8.443
313.15 K, x1 = 0.22	1285.9	12.5
313.15 K, x1 = 0.252	1301.9	19.81
318.15 K, x1 = 0.023	1053.7	0.805
318.15 K, x1 = 0.045	1102.2	1.037
318.15 K, x1 = 0.07	1145.6	1.45
318.15 K, x1 = 0.1	1186.1	2.291
318.15 K, x1 = 0.128	1215.4	3.1
318.15 K, x1 = 0.16	1243	4.738
318.15 K, x1 = 0.192	1266.1	7.253
318.15 K, x1 = 0.22	1282.8	10.46
318.15 K, x1 = 0.252	1298.7	16.49
323.15 K, x1 = 0.023	1051.7	0.756
323.15 K, x1 = 0.045	1099.6	0.953
323.15 K, x1 = 0.07	1142.8	1.328
323.15 K, x1 = 0.1	1183.2	2.098
323.15 K, x1 = 0.128	1212.4	2.776
323.15 K, x1 = 0.16	1239.9	4.235
323.15 K, x1 = 0.192	1263	6.32
323.15 K, x1 = 0.22	1279.7	8.952
323.15 K, x1 = 0.252	1295.6	13.88
328.15 K, x1 = 0.023	1049.5	0.717
328.15 K, x1 = 0.045	1097.1	0.879
328.15 K, x1 = 0.07	1139.8	1.22
328.15 K, x1 = 0.1	1180.2	1.908
328.15 K, x1 = 0.128	1209.4	2.493
328.15 K, x1 = 0.16	1236.8	3.696
328.15 K, x1 = 0.192	1259.9	5.528
328.15 K, x1 = 0.22	1276.5	7.778
328.15 K, x1 = 0.252	1292.4	11.84
333.15 K, x1 = 0.023	1047.3	0.638
333.15 K, x1 = 0.045	1094.6	0.813
333.15 K, x1 = 0.07	1137.3	1.123
333.15 K, x1 = 0.1	1177.3	1.748
333.15 K, x1 = 0.128	1206.3	2.263
333.15 K, x1 = 0.16	1233.7	3.324
333.15 K, x1 = 0.192	1256.7	4.903
333.15 K, x1 = 0.22	1273.3	6.702
333.15 K, x1 = 0.252	1289.2	10.27
338.15 K, x1 = 0.023	1045.1	0.624
338.15 K, x1 = 0.045	1092.1	0.764
338.15 K, x1 = 0.07	1134.6	1.051
338.15 K, x1 = 0.1	1174.6	1.626
338.15 K, x1 = 0.128	1203.2	2.058
338.15 K, x1 = 0.16	1230.5	2.988
338.15 K, x1 = 0.192	1253.5	4.274
338.15 K, x1 = 0.22	1270.1	5.649
338.15 K, x1 = 0.252	1286	8.914
343.15 K, x1 = 0.023	1042.8	0.579
343.15 K, x1 = 0.045	1089.6	0.716
343.15 K, x1 = 0.07	1131.9	0.97
343.15 K, x1 = 0.1	1171.7	1.49
343.15 K, x1 = 0.128	1200	1.882
343.15 K, x1 = 0.16	1227.3	2.726
343.15 K, x1 = 0.192	1250.3	3.874
343.15 K, x1 = 0.22	1266.9	5.218
343.15 K, x1 = 0.252	1282.7	7.822
348.15 K, x1 = 0.023	1040.6	0.551
348.15 K, x1 = 0.045	1087.2	0.675
348.15 K, x1 = 0.07	1129.2	0.901
348.15 K, x1 = 0.1	1168.8	1.357
348.15 K, x1 = 0.128	1196.7	1.733
348.15 K, x1 = 0.16	1224.1	2.517
348.15 K, x1 = 0.192	1247.1	3.514
348.15 K, x1 = 0.22	1263.6	4.632
348.15 K, x1 = 0.252	1279.5	6.907

— the NIST ThermoML archive (doi:10.1016/j.fluid.2019.05.003)
